Here are results for 6 compounds from US9056833B2, “Crystalline phases of 2′-{[2-(4-methoxy-phenyl)-acetylamino]-methyl}-biphenyl-2-carboxylic acid (2-pyridin-3-yl-ethyl)-amide” (SANOFI-AVENTIS DEUTSCHLAND GMBH, priority 2009, dated 2015).

Type in all cases: physicochemical
Data set [1] in a line: Dynamic vapor sorption (DVS), moisture sorption/desorption isotherms. Conditions: 25° C. How it is done:
Moisture sorption/desorption isotherms were recorded on a DVS-1from Surface Measurement Systems. […] The data were evaluated with the software DVSWin V. 2.15With samples of phase 1, 2, 3and 4of compound I the following water uptake (in mass percent) as a function of the relative humidity was determined.

A short description of data set [2]: Thermodynamic stability of the polymorphs as a function of temperature.
The nature of data set [3]: Maturation experiments (slurry conversion), relative stability of the polymorphs. Conditions: investigated temperature range 0° C. to 80° C. The method, then:
By maturation experiments (slurry conversion) in the temperature region from 0° C. to 80° C. the relative stability of the polymorphs of compound I was investigated.
Maturation experiments (a) to (d) were performed under the specified conditions, starting from a 1:1mixture of polymorphs 1and 4. • (a) The phase mixture was suspended in ethanol. After stirring the suspension for two days at 60° C., the solid was quickly isolated by vacuum filtration. • (b) The phase mixture was suspended in butyl acetate. After stirring the suspension for two days at 60° C., the solid was quickly isolated by vacuum filtration. • (c) The phase mixture was suspended in 1-pentanol. After stirring the suspension for four hours at 80° C., the solid was quickly isolated by vacuum filtration. • (d) The phase mixture was suspended in 1-octanol. After stirring the suspension for four hours at 80° C., the solid was quickly isolated by vacuum filtration.
Maturation experiments (e) to (p) were performed by stirring the suspension under the specified conditions and isolating the solid by vacuum filtration, starting from polymorph 4. • (e) Maturation of 0.208g of compound I in 1.3ml of water/methanol (1:1) was performed at room temperature for four weeks. […]

Data set [4] is described as follows: Solubility compared to other polymorphs.
Data set [5] in a line: Stability of chloroform solvate outside the mother liquor.
Data set [6] in a line: Temperature-resolved X-ray powder diffraction, DSC and TGA of toluene solvate. Conditions: on loss of solvent. The method, then: All X-ray powder diffraction was performed with Stoe Stadi-P transmission diffractometers using CuKα1radiation. For room temperature powder diffraction, linear position sensitive detectors were used, while for temperature-resolved XRPD image plate position sensitive detectors (IP-PSDs) were used. Unless stated otherwise, X-ray powder diffraction was performed at room temperature. Dry samples were investigated in a flat preparation whereas suspensions were investigated in quartz glass capillaries. […] The 2θ (2theta) angles in ° (degree) and the relative intensities of characteristic reflections are specified above, wherein the relative intensity of a reflection is designated as “strong” if it is more than 75% of the intensity of the most intense reflection or it is the most intense reflection itself, and as “medium” if it is between 20% and 75% of the intensity of the most intense reflection.
All DSC measurements were performed with a Mettler DSC822e (module DSC822e/700/109/414935/0025). If not indicated differently, 40μl Al crucibles with sealed lid and hole were used. All measurements were carried out in a nitrogen gas flow of 50mL/minute. The heating rate was 10° C./minute unless indicated otherwise. Temperature and heat flow were calibrated via the melting peak of an indium reference. The measured data were evaluated with the software STARe V6.1.

Turning to `COc1ccc(CC(=O)NCc2ccccc2-c2ccccc2C(=O)NCCc2cccnc2)cc1` [Polymorph 1, 2′-{[2-(4-methoxy-phenyl)-acetylamino]-methyl}-biphenyl-2-carboxylic acid (2-pyridin-3-yl-ethyl)-amide], the “water uptake (in mass percent)” value in data set [1] (relative humidity 20%, listed as Phase 1) is listed as 0.00%; in data set [1] (relative humidity 40%, listed as Phase 1), 0.01%; in data set [1] (relative humidity 60%, listed as Phase 1), 0.01%; in data set [1] (relative humidity 80%, listed as Phase 1), 1.36%. In data set [2], the “temperature range in which the polymorph is thermodynamically stable” value was “below 90 °C”. The “relative thermodynamic stability among the known polymorphs” value in data set [3] is recorded as “thermodynamically most stable”.

Consider `COc1ccc(CC(=O)NCc2ccccc2-c2ccccc2C(=O)NCCc2cccnc2)cc1` [Polymorph 2, 2′-{[2-(4-methoxy-phenyl)-acetylamino]-methyl}-biphenyl-2-carboxylic acid (2-pyridin-3-yl-ethyl)-amide], for which the “water uptake (in mass percent)” value in data set [1] (relative humidity 20%, listed as Phase 2) turned out to be 0.04%; in data set [1] (relative humidity 40%, listed as Phase 2), 0.05%; in data set [1] (relative humidity 60%, listed as Phase 2) it was 0.09%; in data set [1] (relative humidity 80%, listed as Phase 2) it was 1.79%. The “thermodynamic stability (in words)” value in data set [2] is “metastable at any temperature”. The “solubility compared to other polymorphs” value in data set [4] is “higher solubility”.

Take `COc1ccc(CC(=O)NCc2ccccc2-c2ccccc2C(=O)NCCc2cccnc2)cc1` [Polymorph 3, 2′-{[2-(4-methoxy-phenyl)-acetylamino]-methyl}-biphenyl-2-carboxylic acid (2-pyridin-3-yl-ethyl)-amide]: the “water uptake (in mass percent)” value stood at 0.02% in data set [1] (relative humidity 20%, listed as Phase 3); 0.03% in data set [1] (relative humidity 40%, listed as Phase 3); 0.06% in data set [1] (relative humidity 60%, listed as Phase 3); 0.30% in data set [1] (relative humidity 80%, listed as Phase 3). The “thermodynamic stability (in words)” value in data set [2] is “only metastable below 90 °C”.

`COc1ccc(CC(=O)NCc2ccccc2-c2ccccc2C(=O)NCCc2cccnc2)cc1` [Polymorph 4, 2′-{[2-(4-methoxy-phenyl)-acetylamino]-methyl}-biphenyl-2-carboxylic acid (2-pyridin-3-yl-ethyl)-amide]: the “water uptake (in mass percent)” value in data set [1] (relative humidity 20%, listed as Phase 4) is reported as 0.05%; in data set [1] (relative humidity 40%, listed as Phase 4) it was 0.02%; in data set [1] (relative humidity 60%, listed as Phase 4), 0.15%; in data set [1] (relative humidity 80%, listed as Phase 4), 1.80%. In data set [2], the “temperature range in which the polymorph is thermodynamically stable” value was “around 90 °C”.

In the case of `COc1ccc(CC(=O)NCc2ccccc2-c2ccccc2C(=O)NCCc2cccnc2)cc1` [chloroform solvate, 2′-{[2-(4-methoxy-phenyl)-acetylamino]-methyl}-biphenyl-2-carboxylic acid (2-pyridin-3-yl-ethyl)-amide], the “stability outside the mother liquor” value in data set [5] is reported as “only moderately stable”. Also, the “form obtained on transformation” value in data set [5] (outside the mother liquor) is reported as “starts to transform to polymorph 2”.

For `COc1ccc(CC(=O)NCc2ccccc2-c2ccccc2C(=O)NCCc2cccnc2)cc1` [toluene solvate, 2′-{[2-(4-methoxy-phenyl)-acetylamino]-methyl}-biphenyl-2-carboxylic acid (2-pyridin-3-yl-ethyl)-amide], in data set [6], the “form obtained on transformation” value is on record as “transforms to polymorph 4”.
